Source: patent publication US20230160021A1, “METHOD FOR THE DETECTION OF A SEXUALLY TRANSMITTED INFECTIOUS PATHOGEN” (SELFDIAGNOSTICS DEUTSCHLAND GMBH, priority 2016, published 2023)

How the values were obtained:
[1] = tested on: LAMP reaction; test: LAMP amplification activity in the presence of lytic agents / lytic peptides; type: biochemical; settings: for inhibiting effect on the LAMP amplification efficiency: 5 μM antimicrobial peptide in LAMP reaction
Description: Loop-mediated isothermal amplification activity in the presence of different lytic agents. Percentage of amplification activity in the presence of 0.1% polyethylene glycol p-(1,1,3,3-tetramethylbutyl)-phenyl ether, 0.1 mg/ml lysozyme (with or without 0.1% polyethylene glycol p-(1,1,3,3-tetramethylbutyl)-phenyl ether or 1 mM EDTA) or alkaline lysis components.
Loop-mediated isothermal amplification activity in the presence of different lytic peptides. Percentage of amplification activity in the presence of 5 μM antimicrobial peptides.

[2] = tested on: E. coli; test: Loop-mediated isothermal amplification directly from E. coli cell lysates after pretreatment of urine spiked E. coli; type: cell-based, Escherichia coli
Description: Loop-mediated isothermal amplification directly from E. coli cell lysates. Isothermal amplification after pretreatment of urine spiked E. coli with different lysate preparation techniques. Lysozyme was used at 1 mg/ml concentration, polyethylene glycol p-(1,1,3,3-tetramethylbutyl)-phenyl ether at 1% and peptides at 50 μM concentration for the biological sample treatment. All sample pretreatments were performed for 5 min at RT° C. (except for heat treatment that was incubated at 95° C.).
A biological sample containing E. coli bacteria (urine sample in FIG. 6) is treated with 50 μM antimicrobial peptide belonging to but not limited to cecropin group (Cecropin P1 or SB-37 in FIG. 6) for 5 min at RT° C. 5 μl of the urine sample is added directly to the loop-mediated amplification reaction, so that final reaction volume is 50 μl and final components concentration as follows: 0.2 μM F3 primer, 0.2 μM B3 primer, 1.6 μM BIP primer, 1.6 μM FIP primer, 0.8 μM LF primer, 0.8 μM LB primer, 8 mM MgSO4, 1.4 mM dNTP, 0.8M betain, 20 mM Tris-HCl pH 8.8, 10 mM KCl, 10 mM (NH4)2SO4, 0.1% (v/v) Tween 20 and 16 units of Bsm polymerase.

Compound | inhibiting effect on the LAMP amplification efficiency [1] | further results
CC[C@H](C)[C@H](NC(=O)CN)C(=O)NCC(=O)N[C@@H](C)C(=O)N[C@H](C(=O)N[C@@H](CC(C)C)C(=O)N[C@@H](CCCCN)C(=O)N[C@H](C(=O)N[C@@H](CC(C)C)C(=O)N[C@H](C(=O)N[C@H](C(=O)NCC(=O)N[C@@H](CC(C)C)C(=O)N1CCC[C@H]1C(=O)N[C@@H](C)C(=O)N[C@@H](CC(C)C)C(=O)N[C@H](C(=O)N[C@@H](CO)C(=O)N[C@@H](Cc1c[nH]c2ccccc12)C(=O)N[C@H](C(=O)N[C@@H](CCCCN)C(=O)N[C@@H](CCCNC(=N)N)C(=O)N[C@@H](CCCCN)C(=O)N[C@@H](CCCNC(=N)N)C(=O)N[C@@H](CCC(N)=O)C(=O)N[C@@H](CCC(N)=O)C(N)=O)[C@@H](C)CC)[C@@H](C)CC)[C@@H](C)O)[C@@H](C)O)C(C)C)C(C)C [melittin] | inhibiting effect comparable to alkaline lysis components | 
Bombolitin III | only mild inhibition | 
Cecropin P1 (SWLSKTAKKLENSAKKRISEGIAIAIQGGPR; listed as Ascaris suum) | lowest inhibitory effect | increase of the target DNA available for the isothermal amplification ([2]; 50 μM peptide, 5 min at RT, urine spiked E. coli, LAMP (FIG. 6)): 6 times; effect of sample pre-treatment on isothermal amplification efficiency ([2]; urine sample, peptide pre-treatment (FIG. 6)): enhancing effect; inhibiting effect on the LAMP amplification efficiency ([1]; listed as P1): only mild inhibition
MSI-78 | quite severe inhibiting effect | 
MSI-594 | quite severe inhibiting effect | 
lysozyme |  | effect on the amplification efficiency ([1]; lysozyme alone, 0.1 mg/ml in LAMP reaction): very modest effect; isothermal amplification efficiency ([1]; lysozyme in combination with lysis enhancing agents (polyethylene glycol p-(1,1,3,3-tetramethylbutyl)-phenyl ether or EDTA)): significantly reduced
